Reference: US20220409577A1, “INTRATUMORAL ADMINISTRATION OF ASCORBIC ACID AND QUINONE COMPOUNDS FOR TUMOR TREATMENT” (IC-MedTech Corp., priority 2021, published 2022)

System: Glioblastoma cells (GS9L)
Assay: Antitumor activity in a glioblastoma xenograft mouse model (GS9L), intracranial treatment
Assay type: in vivo, Balb/c nude mice
Settings: glioblastoma-bearing mice; single intracranial injection on Day 4; TMZ 4 mg/kg; L-ascorbic acid 1.4 or 7 mg/kg + menadione 14 or 70 μg/kg, then oral L-ascorbic acid 15 g/L and menadione 150 mg/L in water daily
Description: Six-week-old male Balb/c nude mice were maintained in specific pathogen-free conditions. Glioblastoma cells (GS9L) were cultured in DMEM supplemented with 10% FBS, penicillin (100 U/mL), and streptomycin (100 mg/L) at 37° C. in a humidified atmosphere containing 5% CO2. After deep anesthesia, the mice were positioned in a stereotactic frame. A small craniectomy was performed at 2-3 mm from the midline and 1 mm anterior to the coronal suture. The glioblastoma cells (5×10^5 cells in 5 μL) were stereotactically injected into the brain parenchyma at a depth of 3 mm on Day 1 using an automated injector.
Vitamin C (L-ascorbic acid) was dissolved in PBS at 10 mM (pH 7.4). Menadione and temozolomide (TMZ) were each dissolved in DMSO at 10 mM as a stock solution and diluted in PBS when in use. The final concentration of DMSO was below 1%. […] The glioblastoma-bearing mice were analyzed on Days 4, 7, 14, 21, and 28 (i.e., 0, 3, 10, 17, and 24 days after drug administration) by MRI to determine the size of the glioblastoma. […]

Cn1nnc2c(C(N)=O)ncn2c1=O [TMZ, temozolomide]
side-effects (e.g., fever, tetraplegia, or convulsions): experienced side-effects (e.g., fever, tetraplegia, or convulsions)
